The text below walks through data of ChEMBL document CHEMBL5653615 (J Biol Chem, 2013).

For orientation: inhibition means the relative decrease from the control value, in per cent.

Test [1] addresses Serine/threonine-protein kinase B-raf (Homo sapiens) (UniProt P15056). As to the kind of experiment: Inhibition of human BRAF at 500 nM by HotSpot assay relative to control.
Test [2] has as its target T1, Ephrin type-B receptor 3 (Homo sapiens) (UniProt P54753).
T1 sequence (whole entry): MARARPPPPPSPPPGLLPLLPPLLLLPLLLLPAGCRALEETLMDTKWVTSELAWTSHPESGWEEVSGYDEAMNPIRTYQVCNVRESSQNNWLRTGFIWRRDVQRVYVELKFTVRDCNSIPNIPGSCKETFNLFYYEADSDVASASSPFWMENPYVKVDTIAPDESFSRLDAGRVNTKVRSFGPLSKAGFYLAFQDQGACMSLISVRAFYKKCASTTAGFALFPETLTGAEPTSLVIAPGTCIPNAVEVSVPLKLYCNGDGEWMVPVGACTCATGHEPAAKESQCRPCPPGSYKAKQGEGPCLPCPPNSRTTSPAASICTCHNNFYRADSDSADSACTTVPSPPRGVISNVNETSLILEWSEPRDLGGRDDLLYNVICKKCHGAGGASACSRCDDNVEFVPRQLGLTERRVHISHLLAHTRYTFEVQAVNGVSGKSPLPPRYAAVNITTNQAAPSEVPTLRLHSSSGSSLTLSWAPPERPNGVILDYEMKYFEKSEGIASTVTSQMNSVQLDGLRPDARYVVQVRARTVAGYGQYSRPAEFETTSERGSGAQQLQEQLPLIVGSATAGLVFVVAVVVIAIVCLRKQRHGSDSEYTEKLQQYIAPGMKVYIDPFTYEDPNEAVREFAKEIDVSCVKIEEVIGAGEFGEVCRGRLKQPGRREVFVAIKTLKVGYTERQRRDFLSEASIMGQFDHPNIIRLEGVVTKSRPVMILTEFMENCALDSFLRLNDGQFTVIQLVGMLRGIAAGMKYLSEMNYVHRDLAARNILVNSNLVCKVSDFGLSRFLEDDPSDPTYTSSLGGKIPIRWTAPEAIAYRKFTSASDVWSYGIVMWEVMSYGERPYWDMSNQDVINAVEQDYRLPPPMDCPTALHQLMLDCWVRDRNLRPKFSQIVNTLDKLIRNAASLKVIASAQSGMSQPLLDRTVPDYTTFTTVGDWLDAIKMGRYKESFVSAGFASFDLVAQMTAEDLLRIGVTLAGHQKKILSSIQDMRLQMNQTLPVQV
As to the kind of experiment: Inhibition of human EPHB3 at 500 nM by HotSpot assay relative to control.

In test [3] the target is T2, Interleukin-1 receptor-associated kinase 4 (Homo sapiens) (UniProt Q9NWZ3).
T2 sequence (whole entry): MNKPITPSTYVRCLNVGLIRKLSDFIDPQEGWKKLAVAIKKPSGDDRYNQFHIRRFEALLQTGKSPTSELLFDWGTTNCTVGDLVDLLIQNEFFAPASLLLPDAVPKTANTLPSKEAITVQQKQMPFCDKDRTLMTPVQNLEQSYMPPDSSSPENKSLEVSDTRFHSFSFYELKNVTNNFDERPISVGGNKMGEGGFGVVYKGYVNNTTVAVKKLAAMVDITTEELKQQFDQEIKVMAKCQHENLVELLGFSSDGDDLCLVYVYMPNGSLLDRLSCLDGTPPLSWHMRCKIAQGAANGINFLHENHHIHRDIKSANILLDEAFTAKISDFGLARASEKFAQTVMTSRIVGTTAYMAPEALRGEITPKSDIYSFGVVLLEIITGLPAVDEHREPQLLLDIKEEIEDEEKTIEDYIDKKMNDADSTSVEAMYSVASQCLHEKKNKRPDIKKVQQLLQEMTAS
In words: Inhibition of human IRAK4 at 500 nM by HotSpot assay relative to control.

Test [4] concerns the target T3, cGMP-dependent protein kinase 2 (Homo sapiens) (UniProt Q13237).
T3 sequence (whole entry): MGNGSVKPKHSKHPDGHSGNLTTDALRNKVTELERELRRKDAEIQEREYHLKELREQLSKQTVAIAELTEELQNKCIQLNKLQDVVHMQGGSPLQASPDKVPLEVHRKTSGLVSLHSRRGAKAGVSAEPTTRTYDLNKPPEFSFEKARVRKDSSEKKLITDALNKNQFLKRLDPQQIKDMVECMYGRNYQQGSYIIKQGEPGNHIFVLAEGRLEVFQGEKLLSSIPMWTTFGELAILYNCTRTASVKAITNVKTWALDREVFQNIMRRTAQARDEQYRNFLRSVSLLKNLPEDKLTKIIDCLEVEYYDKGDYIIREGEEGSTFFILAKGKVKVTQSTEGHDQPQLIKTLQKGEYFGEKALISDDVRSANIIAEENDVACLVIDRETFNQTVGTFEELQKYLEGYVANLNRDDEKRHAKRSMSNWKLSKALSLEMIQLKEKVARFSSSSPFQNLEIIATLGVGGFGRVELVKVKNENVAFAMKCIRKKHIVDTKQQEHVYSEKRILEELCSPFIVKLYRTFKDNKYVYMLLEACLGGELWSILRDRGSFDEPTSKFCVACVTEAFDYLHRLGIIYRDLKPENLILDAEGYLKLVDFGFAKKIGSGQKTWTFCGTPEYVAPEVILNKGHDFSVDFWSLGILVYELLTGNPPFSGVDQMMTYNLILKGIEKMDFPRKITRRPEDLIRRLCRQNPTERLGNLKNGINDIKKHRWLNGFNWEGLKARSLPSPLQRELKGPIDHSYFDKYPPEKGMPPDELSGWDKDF
In words: Inhibition of human PRKG2 at 500 nM by HotSpot assay relative to control.

The target in test [5] is RAC-alpha serine/threonine-protein kinase (Homo sapiens) (UniProt P31749). In words: Inhibition of human AKT1 at 500 nM by HotSpot assay relative to control.
For test [6], the target named is LIM domain kinase 1 (Homo sapiens) (UniProt P53667). As to the kind of experiment: Inhibition of human LIMK1 at 500 nM by HotSpot assay relative to control.
Test [7] deals with Mast/stem cell growth factor receptor Kit (Homo sapiens) (UniProt P10721). As to the kind of experiment: Inhibition of human c-Kit at 500 nM by HotSpot assay relative to control.
Test [8] concerns the target Ribosomal protein S6 kinase alpha-4 (Homo sapiens) (UniProt O75676). As to the kind of experiment: Inhibition of human RPS6KA4 at 500 nM by HotSpot assay relative to control.

Sequence of Serine/threonine-protein kinase B-raf (Homo sapiens) (P15056 whole entry): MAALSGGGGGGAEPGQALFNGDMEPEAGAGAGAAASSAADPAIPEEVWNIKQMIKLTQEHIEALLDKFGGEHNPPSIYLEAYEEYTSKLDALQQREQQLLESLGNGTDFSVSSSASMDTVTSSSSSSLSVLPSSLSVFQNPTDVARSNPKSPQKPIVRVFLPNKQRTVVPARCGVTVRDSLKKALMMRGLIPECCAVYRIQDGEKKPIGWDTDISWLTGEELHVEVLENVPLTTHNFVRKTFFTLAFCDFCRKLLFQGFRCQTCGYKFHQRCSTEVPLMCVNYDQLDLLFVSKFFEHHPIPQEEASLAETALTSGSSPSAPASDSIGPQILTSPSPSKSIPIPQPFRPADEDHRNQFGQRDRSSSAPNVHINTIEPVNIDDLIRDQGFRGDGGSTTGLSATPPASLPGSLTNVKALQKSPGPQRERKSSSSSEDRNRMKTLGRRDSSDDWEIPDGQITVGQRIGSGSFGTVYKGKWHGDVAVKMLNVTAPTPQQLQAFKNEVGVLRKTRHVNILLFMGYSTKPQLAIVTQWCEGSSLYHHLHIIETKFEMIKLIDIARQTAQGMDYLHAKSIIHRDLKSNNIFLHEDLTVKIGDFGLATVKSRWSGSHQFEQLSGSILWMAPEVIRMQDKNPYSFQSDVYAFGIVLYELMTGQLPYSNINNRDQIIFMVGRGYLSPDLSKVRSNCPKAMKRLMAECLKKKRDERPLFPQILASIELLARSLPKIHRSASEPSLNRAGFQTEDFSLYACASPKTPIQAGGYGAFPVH
Sequence of RAC-alpha serine/threonine-protein kinase (Homo sapiens) (P31749 whole entry, the tested form may be a part): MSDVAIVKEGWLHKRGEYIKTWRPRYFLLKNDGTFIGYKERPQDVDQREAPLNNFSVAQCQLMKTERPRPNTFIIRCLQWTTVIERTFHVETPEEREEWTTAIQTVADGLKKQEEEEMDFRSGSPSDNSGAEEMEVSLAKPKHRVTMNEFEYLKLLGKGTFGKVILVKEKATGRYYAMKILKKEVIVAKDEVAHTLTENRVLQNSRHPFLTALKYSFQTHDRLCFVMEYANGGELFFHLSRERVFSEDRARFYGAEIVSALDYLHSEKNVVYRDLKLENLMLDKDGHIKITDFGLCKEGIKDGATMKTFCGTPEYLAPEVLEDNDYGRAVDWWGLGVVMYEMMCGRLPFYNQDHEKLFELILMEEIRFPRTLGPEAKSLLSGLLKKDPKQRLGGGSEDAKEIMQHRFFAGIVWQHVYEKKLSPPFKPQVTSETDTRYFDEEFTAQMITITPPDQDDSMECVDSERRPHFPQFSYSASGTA
Sequence of LIM domain kinase 1 (Homo sapiens) (P53667 whole entry, looked up, the tested form may be a part): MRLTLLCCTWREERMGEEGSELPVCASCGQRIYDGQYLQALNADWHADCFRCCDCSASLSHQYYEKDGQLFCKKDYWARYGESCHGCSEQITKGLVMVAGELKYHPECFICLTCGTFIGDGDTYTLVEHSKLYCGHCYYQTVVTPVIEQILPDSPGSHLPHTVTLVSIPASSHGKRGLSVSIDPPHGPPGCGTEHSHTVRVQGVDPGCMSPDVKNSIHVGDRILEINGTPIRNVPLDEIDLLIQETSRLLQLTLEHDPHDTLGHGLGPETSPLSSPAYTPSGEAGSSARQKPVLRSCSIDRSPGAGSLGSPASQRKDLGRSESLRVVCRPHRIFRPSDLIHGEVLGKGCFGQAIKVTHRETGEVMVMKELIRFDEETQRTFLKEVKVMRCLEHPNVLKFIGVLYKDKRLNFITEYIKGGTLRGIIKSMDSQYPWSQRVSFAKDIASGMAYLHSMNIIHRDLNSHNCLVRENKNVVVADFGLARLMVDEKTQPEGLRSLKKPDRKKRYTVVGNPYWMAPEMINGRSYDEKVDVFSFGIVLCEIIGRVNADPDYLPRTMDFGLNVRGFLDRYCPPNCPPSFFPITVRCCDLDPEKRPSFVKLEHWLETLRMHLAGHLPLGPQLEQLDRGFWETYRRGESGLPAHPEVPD
Sequence of Ribosomal protein S6 kinase alpha-4 (Homo sapiens) (O75676 whole entry, looked up): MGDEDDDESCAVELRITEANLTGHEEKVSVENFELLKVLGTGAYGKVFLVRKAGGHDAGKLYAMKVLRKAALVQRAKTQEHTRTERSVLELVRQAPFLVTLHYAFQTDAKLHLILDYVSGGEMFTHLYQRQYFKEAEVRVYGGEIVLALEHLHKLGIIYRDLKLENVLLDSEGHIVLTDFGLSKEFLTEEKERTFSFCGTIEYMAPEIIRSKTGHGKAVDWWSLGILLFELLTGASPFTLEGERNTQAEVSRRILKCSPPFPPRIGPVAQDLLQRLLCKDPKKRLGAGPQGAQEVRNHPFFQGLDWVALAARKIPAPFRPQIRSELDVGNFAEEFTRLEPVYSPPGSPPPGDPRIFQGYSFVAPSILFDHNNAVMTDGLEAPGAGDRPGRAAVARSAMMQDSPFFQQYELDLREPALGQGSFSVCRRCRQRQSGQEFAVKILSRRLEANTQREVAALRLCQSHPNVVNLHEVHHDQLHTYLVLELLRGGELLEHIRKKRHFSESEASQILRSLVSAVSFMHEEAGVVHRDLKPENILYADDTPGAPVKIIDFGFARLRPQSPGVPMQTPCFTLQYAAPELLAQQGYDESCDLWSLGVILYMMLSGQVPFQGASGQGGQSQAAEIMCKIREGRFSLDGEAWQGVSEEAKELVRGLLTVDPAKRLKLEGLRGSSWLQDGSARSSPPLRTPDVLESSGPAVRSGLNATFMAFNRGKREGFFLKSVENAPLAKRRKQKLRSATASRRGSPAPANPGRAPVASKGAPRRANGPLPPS
Sequence of Mast/stem cell growth factor receptor Kit (Homo sapiens) (P10721 whole entry): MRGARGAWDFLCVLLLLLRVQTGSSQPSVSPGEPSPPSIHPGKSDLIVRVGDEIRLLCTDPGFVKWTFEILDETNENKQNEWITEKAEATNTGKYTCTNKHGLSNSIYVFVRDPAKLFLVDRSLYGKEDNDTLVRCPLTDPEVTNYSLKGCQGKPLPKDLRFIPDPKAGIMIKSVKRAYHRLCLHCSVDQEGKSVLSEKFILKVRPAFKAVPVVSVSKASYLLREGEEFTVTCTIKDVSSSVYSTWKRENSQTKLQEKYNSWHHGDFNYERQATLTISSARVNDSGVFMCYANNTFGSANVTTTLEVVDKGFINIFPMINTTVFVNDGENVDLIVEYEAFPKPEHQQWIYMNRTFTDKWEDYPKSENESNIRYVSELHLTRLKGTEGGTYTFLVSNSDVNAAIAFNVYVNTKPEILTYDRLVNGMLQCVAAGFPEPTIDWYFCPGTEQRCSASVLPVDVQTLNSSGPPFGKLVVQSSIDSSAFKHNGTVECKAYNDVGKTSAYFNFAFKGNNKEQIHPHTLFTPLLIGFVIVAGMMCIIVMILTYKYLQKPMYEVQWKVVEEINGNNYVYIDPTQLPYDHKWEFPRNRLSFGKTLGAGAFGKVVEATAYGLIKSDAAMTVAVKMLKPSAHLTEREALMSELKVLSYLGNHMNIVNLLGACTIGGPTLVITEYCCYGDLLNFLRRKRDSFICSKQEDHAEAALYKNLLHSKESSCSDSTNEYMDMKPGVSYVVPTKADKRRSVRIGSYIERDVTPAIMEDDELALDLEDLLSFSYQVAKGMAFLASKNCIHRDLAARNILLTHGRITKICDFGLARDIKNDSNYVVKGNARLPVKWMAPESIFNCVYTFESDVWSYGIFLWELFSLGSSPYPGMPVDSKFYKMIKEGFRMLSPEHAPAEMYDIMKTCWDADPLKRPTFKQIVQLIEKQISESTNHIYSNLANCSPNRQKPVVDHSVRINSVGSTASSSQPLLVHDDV

As for `Oc1n[nH]c2nnc(-c3c(-c4ccccc4)nn4ccccc34)cc12`, the inhibition is 3.81% in test [1]; -1.08% in test [2]; -3.11% in test [3]; 1.76% in test [4]; 2.37% in test [5]; -1.82% in test [6]. The results for the inhibition in test [7] and in test [8] were 0.91% and 1.99%, respectively.
Consider `Nc1n[nH]c2nnc(-c3c(-c4ccccc4)nn4ccccc34)cc12`, for which the inhibition is 4.35% in test [1]; 3.21% in test [2]; -5.42% in test [3]; -3.62% in test [4]; 1.98% in test [5]; 1.81% in test [6]. For the same compound, the inhibition stood at 2.89% in test [7] and 5.31% in test [8].
